Each structure is given as a SMILES string. Some results are limits rather than exact numbers.

The record followed here is patent publication US10428051B2 (priority 2015, dated 2019).

In this test the target is human σ1 receptor (Homo sapiens, UniProt Q99720). Nature of the test: biochemical. Format: binding. On the set-up: μ and σ1 dual (binding to the σ1 receptor and the μ-opioid receptor expressed as Ki): key to the marks not given beside the values.
Chain of human σ1 receptor (Q99720 whole entry): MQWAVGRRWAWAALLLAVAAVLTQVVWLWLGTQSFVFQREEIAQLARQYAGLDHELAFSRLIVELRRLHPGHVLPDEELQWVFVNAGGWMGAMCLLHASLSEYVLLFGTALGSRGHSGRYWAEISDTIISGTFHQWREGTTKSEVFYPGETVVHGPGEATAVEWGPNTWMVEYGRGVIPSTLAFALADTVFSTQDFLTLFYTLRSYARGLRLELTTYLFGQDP
With `CCC(=O)N(CC1(N2CCN(CC(C)C)CC2)CCOC2(CCCC2)C1)c1cccc(C(F)(F)F)n1` (centres unmarked) [Example 175, N-((9-(4-isobutylpiperazin-1-yl)-6-oxaspiro[4.5]decan-9-yl)methyl)-N-(6-(trifluoromethyl)pyridin-2-yl)propionamide], the inhibitory constant (Ki) is less than 500 nM.
The same measure, in the same setting: in the case of `CCC(=O)N(CC1(N2CCN(CC(C)C)CC2)CCOC(C)(C)C1)c1cccc(C(F)(F)F)n1` (centres unmarked) [Example 160, N-((4-(4-isobutylpiperazin-1-yl)-2,2-dimethyltetrahydro-2H-pyran-4-yl)methyl)-N-(6-(trifluoromethyl)pyridin-2-yl)propionamide] it was less than 500 nM; in that of `CCC(=O)N(CC1(N2CCN(CCOC(C)C)CC2)CCOC(C)(C)C1)c1cccc(C#N)n1` (centres unmarked) [Example 172, N-(6-cyanopyridin-2-yl)-N-((4-(4-(2-isopropoxyethyl)piperazin-1-yl)-2,2-dimethyltetrahydro-2H-pyran-4-yl)methyl)propionamide], greater than 500 nM; in that of `CCC(=O)N(CC1(N2CCN(CC(=O)N3CCCCC3)CC2)CCOCC1)c1ccccc1` [Example 127, N-((4-(4-(2-oxo-2-(piperidin-1-yl)ethyl)piperazin-1-yl)tetrahydro-2H-pyran-4-yl)methyl)-N-phenylpropionamide], greater than 500 nM.
On the same count and under the same terms, the value for `CCC(=O)N(CC1(N2CCN(Cc3ccccc3F)CC2)CCOCC1)c1ccccc1` [Example 104, N-((4-(4-(2-fluorobenzyl)piperazin-1-yl)tetrahydro-2H-pyran-4-yl)methyl)-N-phenylpropionamide] was less than 500 nM; that for `CCC(=O)N(CC1(N2CCN(CCC(C)C)CC2)CC1)c1cccc(C(F)(F)F)n1` [Example 124, N-((1-(4-isopentylpiperazin-1-yl)cyclopropyl)methyl)-N-(6-(trifluoromethyl)pyridin-2-yl)propionamide] was less than 100 nM.
With `CCC(=O)N(CC1(N2CCN(CC(=O)N3CCCCC3)CC2)CC1)c1ccccc1` [Example 132, N-((1-(4-(2-oxo-2-(piperidin-1-yl)ethyl)piperazin-1-yl)cyclopropyl)methyl)-N-phenylpropionamide], the “μ and σ1 dual (binding to the σ1 receptor and the μ-opioid receptor expressed as Ki)” value (shortened to “μ and σ1 dual”) is given as “++”.
As to `CCC(=O)N(CC1(N2CCN(Cc3ccccc3)CC2)CCOCC1)c1ccccn1` [Example 56, N-((4-(4-benzylpiperazin-1-yl)tetrahydro-2H-pyran-4-yl)methyl)-N-(pyridin-2-yl)propionamide], the Ki was less than 500 nM.
`CCC(=O)N(CC1(N2CCN(C(C)CC)CC2)CCOCC1)c1cccc(C(F)(F)F)n1` (centres unmarked) [Example 139, N-((4-(4-sec-butylpiperazin-1-yl)tetrahydro-2H-pyran-4-yl)methyl)-N-(6-(trifluoromethyl)pyridin-2-yl)propionamide]: the “μ and σ1 dual” value is “++”.
Regarding `CCC(=O)N(CC1(N2CCN(Cc3ccc(F)cn3)CC2)CC1)c1ccccc1` [Example 121, N-((1-(4-((5-fluoropyridin-2-yl)methyl)piperazin-1-yl)cyclopropyl)methyl)-N-phenylpropionamide], the Ki is greater than 500 nM.
In turn, `CCC(=O)N(CC1(N2CCN(CCOCC(C)(C)F)CC2)CCOCC1)c1cccc(C(F)(F)F)n1` [Example 189, N-((4-(4-(2-(2-fluoro-2-methylpropoxy)ethyl)piperazin-1-yl)tetrahydro-2H-pyran-4-yl)methyl)-N-(6-(trifluoromethyl)pyridin-2-yl)propionamide] came in with an inhibition constant (Ki) of less than 100 nM.
Still for that read-out and setting: the value for `CCC(=O)N(CC1(N2CCN(Cc3cccc(F)c3)CC2)CC1)c1ccccc1` [Example 116, N-((1-(4-(3-fluorobenzyl)piperazin-1-yl)cyclopropyl)methyl)-N-phenylpropionamide] was less than 100 nM.
In the case of `CCC(=O)N(CC1(N2CCN(CC(C)C)CC2)CCOCC1)c1ncccc1F` [Example 158, N-(3-fluoropyridin-2-yl)-N-((4-(4-isobutylpiperazin-1-yl)tetrahydro-2H-pyran-4-yl)methyl)propionamide], the “μ and σ1 dual” value is recorded as “++”.
Consider `CCC(=O)N(CC1(N2CCN(Cc3cccc(F)c3)CC2)CCOCC1)c1ccccc1` [Example 100, N-((4-(4-(3-fluorobenzyl)piperazin-1-yl)tetrahydro-2H-pyran-4-yl)methyl)-N-phenylpropionamide], for which the Ki was less than 100 nM.
With `CCC(=O)N(CC1(N2CCN(Cc3ccc(C(F)(F)F)nc3)CC2)CC1)c1ccccc1` [Example 113, N-phenyl-N-((1-(4-((6-(trifluoromethyl)pyridin-3-yl)methyl)piperazin-1-yl)cyclopropyl)methyl)propionamide], the “μ and σ1 dual” value is “++”.
With `CCC(=O)N(CC1(N2CCN(Cc3ccccc3)CC2)CC1)c1cccc(C#N)n1` [Example 97, N-((1-(4-benzylpiperazin-1-yl)cyclopropyl)methyl)-N-(6-cyanopyridin-2-yl)propionamide], the inhibition constant (Ki) is less than 500 nM.
On to `CCOCCN1CCN(C2(CN(C(=O)CC)c3ncccc3F)CCOCC2)CC1` [Example 156, N-((4-(4-(2-ethoxyethyl)piperazin-1-yl)tetrahydro-2H-pyran-4-yl)methyl)-N-(3-fluoropyridin-2-yl)propionamide], for which the “μ and σ1 dual” value is recorded as “++”.
In the case of `CCC(=O)N(CC1(N2CCN(Cc3ccccc3)CC2)CCOCC1)c1ccc(F)cn1` [Example 6, N-((4-(4-benzylpiperazin-1-yl)tetrahydro-2H-pyran-4-yl)methyl)-N-(5-fluoropyridin-2-yl)propionamide], the inhibition constant (Ki) is less than 500 nM.
Same read-out and setting: the value for `CCNC(=O)N(CC1(N2CCN(Cc3ccccc3)CC2)CC1)c1ccccc1` [Example 52, 1-((1-(4-benzylpiperazin-1-yl)cyclopropyl)methyl)-3-ethyl-1-phenylurea] was less than 500 nM.
As to `CCC(=O)N(CC1(N2CCN(Cc3ccccc3)CC2)CCOCC1)c1cncc(C(F)(F)F)c1` [Example 9, N-((4-(4-benzylpiperazin-1-yl)tetrahydro-2H-pyran-4-yl)methyl)-N-(5-(trifluoromethyl)pyridin-3-yl)propionamide], the “μ and σ1 dual” value was “++”.
On to `CCC(=O)N(CC1(N2CCN(CCC(C)C)CC2)CCOC(C)(C)C1)c1cccc(C(F)(F)F)n1` (centres unmarked) [Example 159, N-((4-(4-isopentylpiperazin-1-yl)-2,2-dimethyltetrahydro-2H-pyran-4-yl)methyl)-N-(6-(trifluoromethyl)pyridin-2-yl)propionamide], for which the Ki is less than 100 nM.
Still for that read-out and setting: in the case of `CCC(=O)N(CC1(N2CC3CN(CC(C)C)CC3C2)CCOCC1)c1cccc(C(F)(F)F)n1` (centres unmarked) [Example 199, N-((4-(5-isobutylhexahydropyrrolo[3,4-c]pyrrol-2(1H)-yl)tetrahydro-2H-pyran-4-yl)methyl)-N-(6-(trifluoromethyl)pyridin-2-yl)propionamide] it was greater than 500 nM.
Same read-out and setting: in the case of `CCC(=O)N(CC1(N2CCN(Cc3ccccc3)CC2)CCOCC1)c1cc(C(F)(F)F)ccn1` [Example 8, N-((4-(4-benzylpiperazin-1-yl)tetrahydro-2H-pyran-4-yl)methyl)-N-(4-(trifluoromethyl)pyridin-2-yl)propionamide] it was less than 500 nM.
As to `CCC(=O)N(CC1(N2CCN(CCC(C)C)CC2)CCOC(C)(C)C1)c1cccc(C#N)n1` (centres unmarked) [Example 88, N-(6-cyanopyridin-2-yl)-N-((4-(4-isopentylpiperazin-1-yl)-2,2-dimethyltetrahydro-2H-pyran-4-yl)methyl)propionamide], the “μ and σ1 dual” value is “++”.
Still for that read-out and setting: in the case of `CCC(=O)N(CC1(N2CCN(Cc3ccc(C(=O)NC)cc3)CC2)CC1)c1ccccc1` [Example 131, N-methyl-4-((4-(1-((N-phenylpropionamido)methyl)cyclopropyl)piperazin-1-yl)methyl)benzamide] it was “++”; in that of `CCC(=O)N(CC1(N2CCN(Cc3ccccc3)CC2)CCOCC1)c1ccc(C(F)(F)F)cn1` [Example 7, N-((4-(4-benzylpiperazin-1-yl)tetrahydro-2H-pyran-4-yl)methyl)-N-(5-(trifluoromethyl)pyridin-2-yl)propionamide], “++”.
Still for that read-out and setting: in the case of `CCC(=O)N(CC(C)(C)N1CCN(CCOC(C)C)CC1)c1ncccc1F` [Example 73, N-(3-fluoropyridin-2-yl)-N-(2-(4-(2-isopropoxyethyl)piperazin-1-yl)-2-methylpropyl)propionamide] it was “++”.
The compound `CCC(=O)N(CC1(N2CCN(Cc3ccc(OC)nc3)CC2)CCOCC1)c1ccccc1` [Example 109, N-((4-(4-((6-methoxypyridin-3-yl)methyl)piperazin-1-yl)tetrahydro-2H-pyran-4-yl)methyl)-N-phenylpropionamide] registered a Ki of less than 500 nM.
As for `CCC(=O)N(CC1(N2CCN(CCc3ncccc3F)CC2)CCOCC1)c1cccc(C(F)(F)F)n1` [Example 192, N-((4-(4-(2-(3-Fluoropyridin-2-yl)ethyl)piperazin-1-yl)tetrahydro-2H-pyran-4-yl)methyl)-N-(6-(trifluoromethyl)pyridin-2-yl)propionamide], the “μ and σ1 dual” value was “++”.
For the compound `CCC(=O)N(CC1(N2CCN(CCOC(C)C)CC2)CCOCC1)c1ncccc1F` [Example 157, N-(3-fluoropyridin-2-yl)-N-((4-(4-(2-isopropoxyethyl)piperazin-1-yl)tetrahydro-2H-pyran-4-yl)methyl)propionamide], the Ki was less than 500 nM.
As to `CCC(=O)N(CC1(N2CCN(CC(C)C)CC2)CCOC(C)(C)C1)c1ncccc1F` (centres unmarked) [Example 170, N-(3-fluoropyridin-2-yl)-N-((4-(4-isobutylpiperazin-1-yl)-2,2-dimethyltetrahydro-2H-pyran-4-yl)methyl)propionamide], the “μ and σ1 dual” value is “++”.
Turning to `CCC(=O)N(CC1(N2CCN(CCOC(C)C)CC2)CCOCC1)c1ccccn1` [Example 152, N-((4-(4-(2-isopropoxyethyl)piperazin-1-yl)tetrahydro-2H-pyran-4-yl)methyl)-N-(pyridin-2-yl)propionamide], the Ki was greater than 500 nM.

The term Ki denotes the dissociation constant of the complex between target and ligand, obtained from inhibition or displacement.
